US7655629B2, “Peptides and their use for the treatment of HIV infections” (priority 2002, dated 2010)
Positions of bridges follow the written chain, without caps; N, C: chain ends. Non-standard residues stand in square brackets, D forms with d. Residues, ends and D or L forms follow the SMILES beside them. dTic = O=C(O)[C@H]1Cc2ccccc2CN1

system: X4-tropic HIV-1 NL4-3; settings: read-out: IC50 NL4-3; P4-CCR5 cells, HIV-1 NL4-3, peptide 2 h before infection, readout three days after infection
Source text: These cells contain the β-galactosidase reporter gene under the control of the HIV-1 promoter. Thus, activation of the β-galactosidase reporter gene allows to measure the efficiency of HIV-1 infection and thus to quantitate the potency of HIV-1 inhibitors (Detheux M. et al., 2000; Journal of Experimental Medicine 192, 1501-1508; Münch et al., 2002; Antimicrobial Agents and Chemotherapy 46, 982-990).
To perform a typical infection assay, P4-CCR5 cells (Charneau et al., 1994; Journal of Molecular Biology 241, 651-662; Charneau et al., Virology. 1994 205, 247-53) were kept in RPMI 1640 medium supplemented with 10 volume % FCS. This cell line coexpresses CD4 and both HIV-1 coreceptors CCR5 and CXCR4 and contains the β-galactosidase gene under the control of the HIV-1 promoter. Virus stocks were generated by the calcium coprecipitation method as described (Detheux et al., J Exp Med. 192:1501-8; 2000), and the p24 antigen levels were quantitated with an HIV p24 ELISA kit obtained through the NIH AIDS Reagent Program. Cells were seeded in flat-bottomed 96-well dishes, cultured overnight, and incubated with the different doses of peptide for 2 h before infection with virus containing 1 ng of p24 antigen in a total volume of […] of medium. After overnight incubation, cells were washed twice and cultivated in fresh culture medium without inhibitory peptide. Three days after infection the cells were lysed, and infectivity was quantitated using the Galacto-Light Plus™ chemiluminescence reporter assay kit (Tropix, Bedford, Mass.) as recommended by the manufacturer. All infections were performed in quintuplicate.

| Compound | IC50 |
| --- | --- |
| CC[C@H](C)[C@H](NC(=O)[C@H](C)NC(=O)[C@H](CCC(=O)O)NC(=O)[C@@H](N)CC(C)C)C(=O)N1CCC[C@H]1C(=O)N[C@H]1CSSC[C@@H](C(=O)N[C@@H](Cc2ccccc2)C(=O)N[C@@H](C)C(=O)N[C@@H](Cc2ccccc2)C(=O)N[C@@H](CC(N)=O)C(=O)N[C@@H](CCCCN)C(=O)N[C@@H](CC(=O)O)C(=O)N[C@@H](Cc2ccccc2)C(=O)N[C@H](C(=O)N[C@@H](Cc2ccccc2)C(=O)O)C(C)C)NC(=O)[C@@H]2CCCN2C(=O)[C@@H]2CCCN2C(=O)[C@H]([C@@H](C)CC)NC(=O)[C@H](CO)NC1=O [VIR-356] (H-LEAIPCSIPPCFAFNKDFVF-OH; disulfide 6-11) | 700 nM |
| CC[C@H](C)[C@H](NC(=O)[C@H](C)NC(=O)[C@H](CCC(=O)O)NC(=O)[C@@H](N)CC(C)C)C(=O)N1CCC[C@H]1C(=O)N[C@@H](CCSC)C(=O)N[C@@H](CO)C(=O)N[C@H](C(=O)N1CCC[C@H]1C(=O)N1CCC[C@@H]1C(=O)N[C@@H](CCC(=O)O)C(=O)N[C@@H](Cc1ccccc1)C(=O)N[C@@H](CC(C)C)C(=O)N[C@@H](Cc1ccccc1)C(=O)NCC(=O)N[C@@H](CCCCN)C(=O)N1CCC[C@H]1C(=O)N[C@@H](C)C(=O)N[C@@H](Cc1ccccc1)C(=O)N[C@H](C(=O)N[C@@H](Cc1ccccc1)C(=O)O)C(C)C)[C@@H](C)CC [VIR-376, LEAIPMSIPpEFLFGKPAFVF] (H-LEAIPMSIP[dP]EFLFGKPAFVF-OH) | 568 nM |
| CC[C@H](C)[C@H](NC(=O)[C@H](C)NC(=O)[C@H](CCC(=O)O)NC(=O)[C@@H](N)CC(C)C)C(=O)N1CCC[C@H]1C(=O)N[C@@H](CCSC)C(=O)N[C@@H](CO)C(=O)N[C@H](C(=O)N1CCC[C@H]1C(=O)N1CCC[C@@H]1C(=O)N[C@@H](CCC(=O)O)C(=O)N[C@@H](Cc1ccccc1)C(=O)N[C@@H](CC(C)C)C(=O)N[C@@H](Cc1ccccc1)C(=O)NCC(=O)N[C@@H](CCCCN)C(=O)N1CCC[C@H]1C(=O)NCC(=O)N[C@@H](Cc1ccccc1)C(=O)N[C@H](C(=O)N[C@@H](Cc1ccccc1)C(=O)O)C(C)C)[C@@H](C)CC [VIR-377, LEAIPMSIPpEFLFGKPGFVF] (H-LEAIPMSIP[dP]EFLFGKPGFVF-OH) | 487 nM |
| CC[C@H](C)[C@H](NC(=O)[C@H](C)NC(=O)[C@H](CCC(=O)O)NC(=O)[C@@H](N)CC(C)C)C(=O)N1CCC[C@H]1C(=O)N[C@@H](CCSC)C(=O)N[C@@H](CO)C(=O)N[C@H](C(=O)N1CCC[C@H]1C(=O)N1CCC[C@@H]1C(=O)N[C@@H](CCC(=O)O)C(=O)N[C@@H](Cc1ccccc1)C(=O)N[C@@H](CC(C)C)C(=O)N[C@@H](Cc1ccccc1)C(=O)NCC(=O)N[C@@H](CCCCN)C(=O)N1CCC[C@H]1C(=O)N[C@@H](Cc1ccccc1)C(=O)N[C@@H](Cc1ccccc1)C(=O)N[C@H](C(=O)N[C@@H](Cc1ccccc1)C(=O)O)C(C)C)[C@@H](C)CC [VIR-380, LEAIPMSIPpEFLFGKPFFVF] (H-LEAIPMSIP[dP]EFLFGKPFFVF-OH) | 540 nM |
| CC[C@H](C)[C@H](NC(=O)[C@H](C)NC(=O)[C@H](CCC(=O)O)NC(=O)[C@@H](N)CC(C)C)C(=O)N1CCC[C@H]1C(=O)N[C@@H](CCSC)C(=O)N[C@@H](CO)C(=O)N[C@H](C(=O)N1CCC[C@H]1C(=O)N1CCC[C@@H]1C(=O)N[C@@H](CCC(=O)O)C(=O)N[C@@H](Cc1ccccc1)C(=O)N[C@@H](CC(C)C)C(=O)N[C@@H](Cc1ccccc1)C(=O)NCC(=O)N[C@@H](CCCCN)C(=O)N1CCC[C@H]1C(=O)N[C@@H](CCC(=O)O)C(=O)N[C@@H](Cc1ccccc1)C(=O)N[C@H](C(=O)N[C@@H](Cc1ccccc1)C(=O)O)C(C)C)[C@@H](C)CC [VIR-384, LEAIPMSIPpEFLFGKPEFVF] (H-LEAIPMSIP[dP]EFLFGKPEFVF-OH) | 622 nM |
| CC[C@H](C)[C@H](NC(=O)[C@H](C)NC(=O)[C@H](CCC(=O)O)NC(=O)[C@@H](N)CC(C)C)C(=O)N1CCC[C@H]1C(=O)N[C@@H](CCSC)C(=O)N[C@@H](CO)C(=O)N[C@@H](C)C(=O)N1CCC[C@H]1C(=O)N1CCC[C@@H]1C(=O)N[C@@H](CCC(=O)O)C(=O)N[C@@H](Cc1ccccc1)C(=O)N[C@@H](CC(C)C)C(=O)N[C@@H](Cc1ccccc1)C(=O)NCC(=O)N[C@@H](CCCCN)C(=O)N1CCC[C@H]1C(=O)N[C@@H](Cc1ccccc1)C(=O)N[C@H](C(=O)N[C@@H](Cc1ccccc1)C(=O)O)C(C)C [VIR-396, LEAIPMSAPpEFLFGKPFVF] (H-LEAIPMSAP[dP]EFLFGKPFVF-OH) | 628 nM |
| CC[C@H](C)[C@H](NC(=O)[C@H](C)NC(=O)[C@H](CCC(=O)O)NC(=O)[C@@H](N)CC(C)C)C(=O)N1CCC[C@H]1C(=O)N[C@@H](CCSC)C(=O)N[C@@H](CO)C(=O)N[C@@H](Cc1ccccc1)C(=O)N1CCC[C@H]1C(=O)N1CCC[C@@H]1C(=O)N[C@@H](CCC(=O)O)C(=O)N[C@@H](Cc1ccccc1)C(=O)N[C@@H](CC(C)C)C(=O)N[C@@H](Cc1ccccc1)C(=O)NCC(=O)N[C@@H](CCCCN)C(=O)N1CCC[C@H]1C(=O)N[C@@H](Cc1ccccc1)C(=O)N[C@H](C(=O)N[C@@H](Cc1ccccc1)C(=O)O)C(C)C [VIR-400, LEAIPMSFPpEFLFGKPFVF] (H-LEAIPMSFP[dP]EFLFGKPFVF-OH) | 590 nM |
| CC[C@H](C)[C@H](NC(=O)[C@H](C)NC(=O)[C@H](CCC(=O)O)NC(=O)[C@@H](N)CC(C)C)C(=O)N1CCC[C@H]1C(=O)N[C@@H](CCSC)C(=O)NCC(=O)N[C@H](C(=O)N1CCC[C@H]1C(=O)N1CCC[C@@H]1C(=O)N[C@@H](CCC(=O)O)C(=O)N[C@@H](Cc1ccccc1)C(=O)N[C@@H](CC(C)C)C(=O)N[C@@H](Cc1ccccc1)C(=O)NCC(=O)N[C@@H](CCCCN)C(=O)N1CCC[C@H]1C(=O)N[C@@H](Cc1ccccc1)C(=O)N[C@H](C(=O)N[C@@H](Cc1ccccc1)C(=O)O)C(C)C)[C@@H](C)CC [VIR-416, LEAIPMGIPpEFLFGKPFVF] (H-LEAIPMGIP[dP]EFLFGKPFVF-OH) | 369 nM |
| CC[C@H](C)[C@H](NC(=O)[C@H](CCCCN)NC(=O)[C@H](CCC(=O)O)NC(=O)[C@@H](N)CC(C)C)C(=O)N1CCC[C@H]1C(=O)N[C@@H](CCSC)C(=O)NCC(=O)N[C@H](C(=O)N1CCC[C@H]1C(=O)N1CCC[C@@H]1C(=O)N[C@@H](CCC(=O)O)C(=O)N[C@@H](Cc1ccccc1)C(=O)N[C@@H](CC(C)C)C(=O)N[C@@H](Cc1ccccc1)C(=O)NCC(=O)N[C@@H](CCCCN)C(=O)N1CCC[C@H]1C(=O)N[C@@H](Cc1ccccc1)C(=O)N[C@H](C(=O)N[C@@H](Cc1ccccc1)C(=O)O)C(C)C)[C@@H](C)CC [VIR-418, LEKIPMGIPpEFLFGKPFVF] (H-LEKIPMGIP[dP]EFLFGKPFVF-OH) | 500 nM |
| CC[C@H](C)[C@H](NC(=O)[C@@H]1CCCN1C(=O)[C@@H](NC(=O)[C@H](C)NC(=O)[C@H](CCC(=O)O)NC(=O)[C@@H](N)CC(C)C)[C@@H](C)CC)C(=O)N[C@@H](CO)C(=O)N[C@H](C(=O)N1CCC[C@H]1C(=O)N1CCC[C@@H]1C(=O)N[C@@H](CCC(=O)O)C(=O)N[C@H](C(=O)N1Cc2ccccc2C[C@@H]1C(=O)N[C@@H](Cc1ccccc1)C(=O)N[C@@H](CC(N)=O)C(=O)N[C@@H](CCCCN)C(=O)N1CCC[C@H]1C(=O)N[C@@H](Cc1ccccc1)C(=O)N[C@H](C(=O)N[C@@H](Cc1ccccc1)C(=O)O)C(C)C)C(C)C)[C@@H](C)CC [VIR-445, LEAIPISIPpEV(D-Tic)FNKPFVF] (H-LEAIPISIP[dP]EV[dTic]FNKPFVF-OH) | 224 nM |
